In patent US20210038585A1 (Tesaro, Inc., priority 2017, published 2021):
“And” between values parts separate entries of the source, which are not always exact repeats. Equal values may be shown once. Read-outs that look alike come from different tables or passages of the source.

How the values were obtained:
[1] = drug substance
Protocol: These batches were divided into sub-lots at various time intervals and each sub-lot was analyzed for content uniformity.

[2] = crystalline solid drug substance
[3] = tested on: cancer cells with mutant BRCA-1 and BRCA-2; settings: read-out: inhibited proliferation, CC50; cited from earlier work
in vivo = settings: 50 mg/kg
[4] = tested on: intracellular PARP activity
[5] = tested on: intracellular PARP activity; settings: read-out: inhibited PARP activity in a whole cell assay, EC50; cited from earlier work
[6] = wall friction test, FT-4 powder rheometer, stainless steel discs; assay type: physicochemical; settings: niraparib batches, Ra 0.05; for BD (bulk density): wall friction test
Excerpt: A Wall Friction test can be used to provide a measurement of the sliding resistance between a powder and the surface of process equipment, such as an encapsulator or blender or hopper. This can be important for understanding discharge behavior from hoppers, continuity of flow in transfer chutes and tablet ejection forces. It is also useful when investigating whether a powder will adhere to the wall of process equipment and various other surfaces, such as the inside of sachets, capsules and other packaging material. The measurement principle is very similar to the shear cell test, but rather than shearing powder against powder, in this test a coupon of material representing the process equipment wall is sheared against the powder in question. The FT4 Wall Friction accessory allows for a range of coupons to be investigated, and bespoke surfaces can be manufactured if required. Data is typically represented as a plot of shear stress against normal stress, allowing the determination of Wall Friction Angle (phi). The greater the wall friction angle, the higher the resistance between the powder and wall coupon.
The measurement principle is very similar to the shear cell test, but rather than shearing powder against powder, in this test a coupon of material representing the process equipment wall is sheared against the powder in question. The FT4 Wall Friction accessory allows for a range of coupons to be investigated. Wall Friction is typically represented as a plot of shear stress against normal stress, allowing the determination of Wall Friction Angle (phi). The greater the wall friction angle, the higher the resistance between the powder and wall coupon.
A wall friction test method was developed to assess the interaction between the drug substance and stainless steel. […]
The head continues to move downwards until the required normal stress is established. […] The torque required to maintain this rotational is measured which enables a “steady-state” shear stress to be calculated. […] A series of shear stress values is measured for a range of target applied stresses. […]

[7] = shear cell tests using a FT-4 powder rheometer; assay type: physicochemical; settings: niraparib drug substance; for BD (bulk density): shear cell test
Protocol: As used herein, “flow function” or FF is a parameter commonly used to rank powder's flowability and is determined using a shear test. The data produced in the shear test represents the relationship between shear stress and normal stress, which can be plotted to define the powder's Yield Locus. Fitting Mohr stress circles to the yield locus identifies the Major Principle Stress (MPS) and Unconfined Yield Strength (UYS). Flow function is the ratio of Major Principle Stress (MPS) to the Unconfined Yield Strength (UYS):
Shear testing can be used measure powder shear properties which involves the stress limit required to initiate a powder flow. The shear testing uses a segmented rotational shear cell head and a 10 ml powder sample in the borosilicate test vessel. Powder is filled into the vessel. The shear cell head is simultaneously rotated and moved axially under the powder sample at pre-determined normal stresses as the shear stresses are measured to calculate several parameters, including the flow function (FF). Usually, powders of low cohesion have higher FF and that represents better flow properties. The permeability test can measure the ease of air transmission through a bulk powder which can be related to the powder's flowability. For example, a permeability testing can use a vented piston with an aeration base and 10 mL powder sample in the borosilicated test vessel.
Samples of powder compositions were prepared to evaluate the powder compositions disclosed herein. The following tests/measurements were made using a FT-4 powder rheometer from Freeman technology.
The cohesion (kPa), Unconfined Yield Strength (UYS) (kPa), Maj or Principle Stress (MPS) (kPa), flow function (FF) (MPS/UYS), Angle of internal friction (AIF), and bulk density (BD) (g/cm^3) were determined by carrying out shear cell tests using a FT-4 powder rheometer and the results can be seen in the tables below: […]

Compound | BD (bulk density) [6] | AIF (Angle of internal friction) [7] | Cohesion [7] | FF, flow function (MPS/UYS) [7] | MPS (Major Principle Stress) [7] | UYS (Unconfined Yield Strength) [7] | BD (bulk density) [7] | other results
O=C(c1cc(Cc2n[nH]c(=O)c3ccccc23)ccc1F)N1CCN(C(=O)C2CC2)CC1 [olaparib] | – | – | – | – | – | – | – | tumor regression (tumor models; same model, dose of 75 mg/kg): did not result in tumor regression
Cc1ccc(S(=O)(=O)O)cc1.NC(=O)c1cccc2cn(-c3ccc([C@@H]4CCCNC4)cc3)nc12 [Niraparib tosylate monohydrate, 2-{4-[(3S)-piperidin-3-yl]phenyl}-2H-indazole 7-carboxamide 4-methylbenzenesulfonate hydrate (1:1:1)] | – | – | – | – | – | – | – | bulk density [1]: 0.34-0.45 g/cc; tapped density [1]: 0.53-0.66 g/cc; hygroscopicity [2]: non-hygroscopic
NC(=O)c1cccc2cn(-c3ccc([C@@H]4CCCNC4)cc3)nc12 [Niraparib, 2-{4-[(3S)-piperidin-3-yl]phenyl}-2H-indazole-7-carboxamide] | – | – | – | – | – | – | – | CC50 [3]: 10 to 100 nM; tumor regression (tumor models; 50 mg/kg, daily dosing): tumor regression; tumor regression (tumor models; dosing switched from 75 mg/kg olaparib to 50 mg/kg niraparib): tumor regression was achieved; concentration at 6 h (in vivo): ~4570 ng/mL; intracellular PARP activity IC90 ([4]; mass concentration equivalent): 0.016 µg/mL; IC50 ([4]; read-out: intracellular PARP activity IC50): 4 nM; IC90 ([4]; read-out: intracellular PARP activity IC90): 50 nM; EC50 [5]: 4 nM
Cc1ccc(S(=O)(=O)O)cc1.NC(=O)c1cccc2cn(-c3ccc(C4CCCNC4)cc3)nc12.O (stereo not drawn) [Non Milled, Annealed A] | 0.37 g/mL and 0.38 g/mL and 0.39 g/mL | 36.54 ° and 35.80 ° | 1.10 kPa and 1.02 kPa | 4.27 and 4.66 | 18.64 kPa and 18.50 kPa | 4.36 kPa and 3.97 kPa | 0.38 g/mL and 0.37 g/mL | –
Cc1ccc(S(=O)(=O)O)cc1.NC(=O)c1cccc2cn(-c3ccc(C4CCCNC4)cc3)nc12.O (stereo not drawn) [Non Milled, Annealed D] | 0.44 g/mL and 0.46 g/mL and 0.45 g/mL | 30.49 ° and 31.30 ° | 1.14 kPa and 1.06 kPa | 4.12 and 4.32 | 16.44 kPa and 16.24 kPa | 3.99 kPa and 3.76 kPa | 0.44 g/mL and 0.46 g/mL | WFA (Wall friction angle) [6]: 27.29 ° and 31.10 ° and 30.98 °
